Measurements published in US10239883B2, “4-imidazopyridazin-1-yl-benzamides as BTK inhibitors” (Merck Sharp & Dohme B.V., priority 2011, dated 2019).

Each compound was assayed against Btk enzyme (His-Btk) (Homo sapiens (Human), UniProt Q06187) (assay: Btk enzyme activity, IMAP fluorescence polarization assay). Settings: 60 min pre-incubation, 5 μM ATP, bin bound in nM.
Sequence of Btk enzyme (His-Btk) (Q06187 whole entry): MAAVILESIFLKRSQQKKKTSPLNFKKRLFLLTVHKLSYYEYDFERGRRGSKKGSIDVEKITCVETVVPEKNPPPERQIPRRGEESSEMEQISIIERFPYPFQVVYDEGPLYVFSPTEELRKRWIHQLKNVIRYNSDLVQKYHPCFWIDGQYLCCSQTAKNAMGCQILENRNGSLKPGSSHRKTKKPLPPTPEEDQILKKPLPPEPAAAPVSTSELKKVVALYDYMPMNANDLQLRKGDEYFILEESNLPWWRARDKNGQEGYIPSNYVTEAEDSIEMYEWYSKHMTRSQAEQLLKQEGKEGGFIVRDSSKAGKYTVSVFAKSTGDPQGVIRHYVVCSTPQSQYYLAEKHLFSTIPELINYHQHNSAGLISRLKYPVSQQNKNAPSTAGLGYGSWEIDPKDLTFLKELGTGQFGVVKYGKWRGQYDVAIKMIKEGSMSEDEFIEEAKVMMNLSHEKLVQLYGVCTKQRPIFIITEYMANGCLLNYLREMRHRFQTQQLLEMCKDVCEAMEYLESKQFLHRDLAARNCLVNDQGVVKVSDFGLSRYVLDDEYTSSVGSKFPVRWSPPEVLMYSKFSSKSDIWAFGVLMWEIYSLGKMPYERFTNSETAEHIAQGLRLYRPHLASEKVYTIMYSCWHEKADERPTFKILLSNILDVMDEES

| EC50 Btk activity values | Compound |
| --- | --- |
| <100 nM | CC#CC(=O)N1CCC[C@H]1c1nc(-c2ccc(C(=O)Nc3cc(F)ccn3)cc2)c2c(N)nccn12 [Example 106, (S)-4-(8-amino-3-(1-but-2-ynoylpyrrolidin-2-yl)imidazo[1,5-a]pyrazin-1-yl)-N-(4-fluoropyridin-2-yl)benzamide] |
| <100 nM | COC/C=C/C(=O)N1CCC[C@H]1c1nc(-c2ccc(C(=O)Nc3ccccn3)cc2)c2c(N)nccn12 [Example 4, (S,E)-4-(8-amino-3-(1-(4-methoxybut-2-enoyl)pyrrolidin-2-yl)imidazo[1,5-a]pyrazin-1-yl)-N-(pyridin-2-yl)benzamide] |
| <100 nM | Nc1nccn2c([C@@H]3CCCN3C(=O)c3ccnc(Cl)n3)nc(-c3ccc(C(=O)Nc4nc5c(s4)CCCC5)cc3)c12 [Example 71, (S)-4-(8-amino-3-(1-(2-chloropyrimidine-4-carbonyl)pyrrolidin-2-yl)imidazo[1,5-a]pyrazin-1-yl)-N-(4,5,6,7-tetrahydrobenzo[d]thiazol-2-yl)benzamide] |
| <100 nM | CC#CC(=O)N1CCC[C@H]1c1nc(-c2ccc(C(=O)Nc3ccccn3)c(F)c2)c2c(N)nccn12 [Example 50, (S)-4-(8-amino-3-(1-but-2-ynoylpyrrolidin-2-yl)imidazo[1,5-a]pyrazin-1-yl)-2-fluoro-N-(pyridin-2-yl)benzamide] |
| <100 nM | Cc1ccnc(NC(=O)c2ccc(-c3nc([C@@H]4CCCN4C(=O)/C=C/CN(C)C)n4ccnc(N)c34)cc2)c1 [Example 59, (S,E)-4-(8-amino-3-(1-(4-(dimethylamino)but-2-enoyl)pyrrolidin-2-yl)imidazo[1,5-a]pyrazin-1-yl)-N-(4-methylpyridin-2-yl)benzamide] |
| <100 nM | Nc1nccn2c([C@@H]3CCCN3C(=O)c3ccnc(Cl)n3)nc(-c3ccc(C(=O)Nc4cc(C(F)(F)F)ccn4)cc3)c12 [Example 119, (S)-4-(8-amino-3-(1-(2-chloropyrimidine-4-carbonyl)pyrrolidin-2-yl)imidazo[1,5-a]pyrazin-1-yl)-N-(4-(trifluoromethyl)pyridin-2-yl)benzamide] |
| <100 nM | COC/C=C/C(=O)N1CCC[C@H]1c1nc(-c2ccc(C(=O)Nc3cc(OC)ccn3)cc2)c2c(N)nccn12 [Example 51, (S,E)-4-(8-amino-3-(1-(4-methoxybut-2-enoyl)pyrrolidin-2-yl)imidazo[1,5-a]pyrazin-1-yl)-N-(4-methoxypyridin-2-yl)benzamide] |
| <100 nM | Nc1nccn2c([C@@H]3CCCN3C(=O)c3ccnc(Cl)n3)nc(-c3ccc(C(=O)Nc4ccccn4)c(F)c3)c12 [Example 84, (S)-4-(8-amino-3-(1-(2-chloropyrimidine-4-carbonyl)pyrrolidin-2-yl)imidazo[1,5-a]pyrazin-1-yl)-2-fluoro-N-(pyridin-2-yl)benzamide] |
| <100 nM | COC/C=C/C(=O)N1CCCCCC1c1nc(-c2ccc(C(=O)Nc3ccccn3)cc2)c2c(N)nccn12 (stereo not drawn) [Example 97, (E)-4-(8-amino-3-(1-(4-methoxybut-2-enoyl)azepan-2-yl)imidazo[1,5-a]pyrazin-1-yl)-N-(pyridin-2-yl)benzamide] |
| <100 nM | C[C@H](NC(=O)c1ccnc(Cl)n1)c1nc(-c2ccc(C(=O)Nc3ccccn3)cc2)c2c(N)nccn12 [Example 105, (S)-N-(1-(8-amino-1-(4-(pyridin-2-ylcarbamoyl)phenyl)imidazo[1,5-a]pyrazin-3-yl)ethyl)-2-chloropyrimidine-4-carboxamide] |
| <100 nM | Nc1nccn2c([C@@H]3CCCN3C(=O)/C=C/CN3CCCC3)nc(-c3ccc(C(=O)Nc4ccccn4)cc3)c12 [Example 2, (S,E)-4-(8-amino-3-(1-(4-(pyrrolidin-1-yl)but-2-enoyl)pyrrolidin-2-yl)imidazo[1,5-a]pyrazin-1-yl)-N-(pyridin-2-yl)benzamide] |
| <100 nM | COC/C=C/C(=O)N1CCC[C@H]1c1nc(-c2ccc(C(=O)Nc3nc4c(s3)CCCC4)cc2)c2c(N)nccn12 [Example 82, (S,E)-4-(8-amino-3-(1-(4-methoxybut-2-enoyl)pyrrolidin-2-yl)imidazo[1,5-a]pyrazin-1-yl)-N-(4,5,6,7-tetrahydrobenzo[d]thiazol-2-yl)benzamide] |
| <100 nM | CN(C)CC#CC(=O)N1CCC[C@H]1c1nc(-c2ccc(C(=O)Nc3ccccn3)cc2)c2c(N)nccn12 [Example 40, (S)-4-(8-Amino-3-(1-(4-(dimethylamino)but-2-ynoyl)pyrrolidin-2-yl)imidazo[1,5-a]pyrazin-1-yl)-N-(pyridin-2-yl)benzamide] |
| <100 nM | COC/C=C/C(=O)N1CCCC[C@H]1c1nc(-c2ccc(C(=O)Nc3cc(F)ccn3)cc2)c2c(N)nccn12 [Example 81, (S,E)-4-(8-amino-3-(1-(4-methoxybut-2-enoyl)piperidin-2-yl)imidazo[1,5-a]pyrazin-1-yl)-N-(4-fluoropyridin-2-yl)benzamide] |
| <100 nM | COC/C=C/C(=O)N1CCC[C@H]1c1nc(-c2ccc(C(=O)Nc3cc(C)ccn3)cc2)c2c(N)nccn12 [Example 57, (S,E)-4-(8-amino-3-(1-(4-methoxybut-2-enoyl)pyrrolidin-2-yl)imidazo[1,5-a]pyrazin-1-yl)-N-(4-methylpyridin-2-yl)benzamide] |
| <100 nM | COC/C=C/C(=O)N1CCC[C@H]1c1nc(-c2ccc(C(=O)Nc3cc(C#N)ccn3)cc2)c2c(N)nccn12 [Example 98, (S,E)-4-(8-amino-3-(1-(4-methoxybut-2-enoyl)pyrrolidin-2-yl)imidazo[1,5-a]pyrazin-1-yl)-N-(4-cyanopyridin-2-yl)benzamide] |
| <100 nM | COCC#CC(=O)N1CCC[C@H]1c1nc(-c2ccc(C(=O)Nc3ccccn3)cc2)c2c(N)nccn12 [Example 41, (S)-4-(8-Amino-3-(1-(4-methoxybut-2-ynoyl)pyrrolidin-2-yl)imidazo[1,5-a]pyrazin-1-yl)-N-(pyridin-2-yl)benzamide] |
| <100 nM | Nc1nccn2c([C@@H]3CCCCN3C(=O)c3ccnc(Cl)n3)nc(-c3ccc(C(=O)Nc4cc(F)ccn4)cc3)c12 [Example 80, (S)-4-(8-amino-3-(1-(2-chloropyrimidine-4-carbonyl)piperidin-2-yl)imidazo[1,5-a]pyrazin-1-yl)-N-(4-fluoropyridin-2-yl)benzamide] |
| <100 nM | CN(C)C/C=C/C(=O)NCc1nc(-c2ccc(C(=O)Nc3ccccn3)cc2)c2c(N)nccn12 [Example 69, (E)-4-(8-amino-3-((4-(dimethylamino)but-2-enamido)methyl)imidazo[1,5-a]pyrazin-1-yl)-N-(pyridin-2-yl)benzamide] |
| <100 nM | CC#CC(=O)N1CCC[C@H]1c1nc(-c2ccc(C(=O)Nc3cc(N4CCCC4)ccn3)cc2)c2c(N)nccn12 [Example 96, (S)-4-(8-amino-3-(1-but-2-ynoylpyrrolidin-2-yl)imidazo[1,5-a]pyrazin-1-yl)-N-(4-(pyrrolidin-1-yl)pyridin-2-yl)benzamide] |
| <100 nM | CC#CC(=O)N1CCC[C@H]1c1nc(-c2ccc(C(=O)Nc3ccccn3)c(OC)c2)c2c(N)nccn12 [Example 99, (S)-4-(8-amino-3-(1-but-2-ynoylpyrrolidin-2-yl)imidazo[1,5-a]pyrazin-1-yl)-2-methoxy-N-(pyridin-2-yl)benzamide] |

Same assay, conditions: 60 min pre-incubation, 5 μM ATP, bin bound in μM

| EC50 Btk activity values | Compound |
| --- | --- |
| <1000 nM | COC/C=C/C(=O)N1CCC[C@H]1c1nc(-c2ccc(C(=O)Nc3ccccn3)c(F)c2)c2c(N)nccn12 [Example 52] |
| <1000 nM | COC/C=C/C(=O)N1CCCC[C@H]1c1nc(-c2ccc(C(=O)Nc3ncccn3)cc2)c2c(N)nccn12 [Example 55, (S,E)-4-(8-amino-3-(1-(4-methoxybut-2-enoyl)piperidin-2-yl)imidazo[1,5-a]pyrazin-1-yl)-N-(pyrimidin-2-yl)benzamide] |
| <1000 nM | COC/C=C/C(=O)N1CCCC[C@H]1c1nc(-c2ccc(C(=O)Nc3ccncn3)cc2)c2c(N)nccn12 [Example 86, (S,E)-4-(8-amino-3-(1-(4-methoxybut-2-enoyl)piperidin-2-yl)imidazo[1,5-a]pyrazin-1-yl)-N-(pyrimidin-4-yl)benzamide] |
| <1000 nM | COC/C=C/C(=O)N1CCC[C@H]1c1nc(-c2ccc(C(=O)Nc3cc(F)ccn3)cc2)c2c(N)nccn12 [Example 53, (S,E)-4-(8-amino-3-(1-(4-methoxybut-2-enoyl)pyrrolidin-2-yl)imidazo[1,5-a]pyrazin-1-yl)-N-(4-fluoropyridin-2-yl)benzamide] |
| <1000 nM | N#CCN1CCC[C@H]1c1nc(-c2ccc(C(=O)Nc3ccccn3)cc2)c2c(N)nccn12 [Example 94, (S)-4-(8-amino-3-(1-(cyanomethyl)pyrrolidin-2-yl)imidazo[1,5-a]pyrazin-1-yl)-N-(pyridin-2-yl)benzamide] |
| <1000 nM | COC/C=C/C(=O)N1CCCC[C@H]1c1nc(-c2ccc(C(=O)Nc3ccccn3)cc2C)c2c(N)nccn12 [Example 85, 4-(8-amino-3-((S)-1-((E)-4-methoxybut-2-enoyl)piperidin-2-yl)imidazo[1,5-a]pyrazin-1-yl)-3-methyl-N-(pyridin-2-yl)benzamide] |
| <1000 nM | C=CC(=O)N1CCCC[C@H]1c1nc(-c2ccc(C(=O)Nc3ccccn3)cc2C)c2c(N)nccn12 [Example 68, 4-(3-((S)-1-acryloylpiperidin-2-yl)-8-aminoimidazo[1,5-a]pyrazin-1-yl)-3-methyl-N-(pyridin-2-yl)benzamide] |
| <1000 nM | COC/C=C/C(=O)N1CCCC[C@H]1c1nc(-c2ccc(C(=O)Nc3nccc(C)n3)cc2)c2c(N)nccn12 [Example 88, (S,E)-4-(8-amino-3-(1-(4-methoxybut-2-enoyl)piperidin-2-yl)imidazo[1,5-a]pyrazin-1-yl)-N-(4-methylpyrimidin-2-yl)benzamide] |
| <1000 nM | Nc1nccn2c([C@@H]3CCCCN3C(=O)c3ccnc(Cl)n3)nc(-c3ccc(C(=O)Nc4ncccn4)cc3)c12 [Example 90, (S)-4-(8-amino-3-(1-(2-chloropyrimidine-4-carbonyl)piperidin-2-yl)imidazo[1,5-a]pyrazin-1-yl)-N-(pyrimidin-2-yl)benzamide] |
